In publication PMC1079851, “Cloning of the koi herpesvirus (KHV) gene encoding thymidine kinase and its use for a highly sensitive PCR based diagnosis” (BMC Microbiology, 2005):

Target: T1, KHV TK (recombinant thymidine kinase) (Cyprinid herpesvirus 3, UniProt Q8B3A9)
T1 construct: gene CyHV3_ORF55; E. coli ER2566, chitin column
Test: DE-81 filter paper radiometric kinase assay
Format: biochemical
Details: ATP 10.0 mM, MgCl2 2.0 mM, Tris-Cl 140 mM, 37 °C; substrate 5-30 mM; labelled compound (methyl-3H)

## Cc1cn([C@H]2C[C@H](O)[C@@H](CO)O2)c(=O)[nH]c1=O [methyl-3H Thymidine (dThd)]
  DE-81 filter paper radiometric kinase assay: the enzyme is specifically active using methyl-^3H Thymidine (dThd)
